Our source for the Ratio values is ChEMBL document CHEMBL3880422, “C-terminal modified oxamyl dipeptides as inhibitors of the ICE/ced-3 family of cysteine proteases” (2007).

One assay has as its target T1, Caspase-3 (Homo sapiens) (UniProt P42574).
T1 sequence (whole entry): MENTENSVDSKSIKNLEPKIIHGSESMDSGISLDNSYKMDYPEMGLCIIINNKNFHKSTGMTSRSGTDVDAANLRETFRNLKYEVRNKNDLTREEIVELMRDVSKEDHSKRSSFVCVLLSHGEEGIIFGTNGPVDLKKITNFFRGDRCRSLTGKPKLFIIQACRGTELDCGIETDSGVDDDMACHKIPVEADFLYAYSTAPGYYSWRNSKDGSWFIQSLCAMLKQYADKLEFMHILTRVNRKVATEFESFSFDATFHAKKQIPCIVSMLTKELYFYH
Briefly: Inhibition of recombinant CPP32 (unknown origin) assessed as ratio of irreversible rate constant K3 to dissociation constant of the reversible binding step Ki pre-incubated for 60 mins with Acetyl-Tyr-Val-Ala-Asp-amino-4-methylcoumarin substrate followed by enzyme addition by fluorescence based assay.

The next assay addresses T2, Caspase-1 (Mus musculus) (UniProt P29452).
T2 sequence (whole entry): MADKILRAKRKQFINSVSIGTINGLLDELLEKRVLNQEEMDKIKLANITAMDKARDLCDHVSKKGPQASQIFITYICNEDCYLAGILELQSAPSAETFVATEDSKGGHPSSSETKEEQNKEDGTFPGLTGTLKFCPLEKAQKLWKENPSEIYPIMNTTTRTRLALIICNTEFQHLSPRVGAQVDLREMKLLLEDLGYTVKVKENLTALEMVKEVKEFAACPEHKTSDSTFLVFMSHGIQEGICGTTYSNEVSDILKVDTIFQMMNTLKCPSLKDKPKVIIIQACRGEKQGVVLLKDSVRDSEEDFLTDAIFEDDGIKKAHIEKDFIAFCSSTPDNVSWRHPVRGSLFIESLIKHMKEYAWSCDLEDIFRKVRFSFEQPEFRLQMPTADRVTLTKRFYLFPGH
The assay is described as follows: Inhibition of mouse recombinant ICE assessed as ratio of irreversible rate constant K3 to dissociation constant of the reversible binding step Ki pre-incubated for 60 mins with Acetyl-Tyr-Val-Ala-Asp-amino-4-methylcoumarin substrate followed by enzyme addition by fluorescence based assay.

The target in a further assay is T3, Caspase-6 (Homo sapiens) (UniProt P55212).
T3 sequence (whole entry): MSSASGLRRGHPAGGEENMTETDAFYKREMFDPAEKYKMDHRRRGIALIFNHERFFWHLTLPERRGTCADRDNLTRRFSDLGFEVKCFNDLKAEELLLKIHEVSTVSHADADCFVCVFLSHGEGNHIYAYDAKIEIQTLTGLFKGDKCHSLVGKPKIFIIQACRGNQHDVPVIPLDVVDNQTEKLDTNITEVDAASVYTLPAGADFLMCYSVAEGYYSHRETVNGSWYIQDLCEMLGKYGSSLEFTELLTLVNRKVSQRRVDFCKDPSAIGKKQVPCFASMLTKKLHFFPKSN
The assay is described as follows: Inhibition of recombinant MCH2 (unknown origin) assessed as ratio of irreversible rate constant K3 to dissociation constant of the reversible binding step Ki pre-incubated for 60 mins with Acetyl-Tyr-Val-Ala-Asp-amino-4-methylcoumarin substrate followed by enzyme addition by fluorescence based assay.

The target of another assay is Caspase-8 (Homo sapiens) (UniProt Q14790). Briefly: Inhibition of recombinant MCH5 (unknown origin) assessed as ratio of irreversible rate constant K3 to dissociation constant of the reversible binding step Ki pre-incubated for 60 mins with Acetyl-Tyr-Val-Ala-Asp-amino-4-methylcoumarin substrate followed by enzyme addition by fluorescence based assay.
Caspase-8 (Homo sapiens), sequence (Q14790 217-374 limits assumed): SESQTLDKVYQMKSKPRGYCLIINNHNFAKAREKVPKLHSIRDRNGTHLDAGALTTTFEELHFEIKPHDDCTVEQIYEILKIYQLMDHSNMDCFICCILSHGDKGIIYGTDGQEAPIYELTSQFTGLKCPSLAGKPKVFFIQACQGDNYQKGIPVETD
Caspase-8 (Homo sapiens), sequence (Q14790 385-479 limits assumed): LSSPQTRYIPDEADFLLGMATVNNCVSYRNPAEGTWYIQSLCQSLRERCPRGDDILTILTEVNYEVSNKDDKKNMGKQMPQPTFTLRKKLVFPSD

Molecules are shown by their SMILES.

Take `C[C@H](NC(=O)C(=O)Nc1ccccc1C(C)(C)C)C(=O)N[C@@H](CC(=O)O)C(=O)COP(=O)(c1ccccc1)c1ccccc1`: the Ratio on Caspase-3 (Homo sapiens) lay in the range of 327000 to 395000 M⁻¹ s⁻¹; at Caspase-1 (Mus musculus) it was 159000 to 625000 M⁻¹ s⁻¹; on Caspase-6 (Homo sapiens) it was 275000 to 484000 M⁻¹ s⁻¹; at Caspase-8 (Homo sapiens), 282000 to 589000 M⁻¹ s⁻¹.
For the molecule `C[C@H](NC(=O)C(=O)Nc1ccccc1C(C)(C)C)C(=O)N[C@@H](CC(=O)O)C(=O)COc1ccccc1F`, the Ratio came out at 67700 M⁻¹ s⁻¹ at Caspase-3 (Homo sapiens), 442000 M⁻¹ s⁻¹ on Caspase-1 (Mus musculus), 54900 M⁻¹ s⁻¹ on Caspase-6 (Homo sapiens) and 119000 M⁻¹ s⁻¹ on Caspase-8 (Homo sapiens).
The matching figures for `CC(C)[C@H](NC(=O)C(=O)Nc1ccccc1Cl)C(=O)N[C@@H](CC(=O)O)C(=O)COc1c(F)c(F)cc(F)c1F`: 96300 M⁻¹ s⁻¹, 1.54e+06 M⁻¹ s⁻¹, 161000 M⁻¹ s⁻¹ and 234000 M⁻¹ s⁻¹.
The matching figures for `C[C@H](NC(=O)C(=O)Nc1ccccc1Cc1ccccc1)C(=O)N[C@@H](CC(=O)O)C(=O)COc1c(F)c(F)cc(F)c1F`: 3430 M⁻¹ s⁻¹, 323000 M⁻¹ s⁻¹, 5850 M⁻¹ s⁻¹ and 154000 M⁻¹ s⁻¹.
For `C[C@H](NC(=O)C(=O)Nc1ccccc1I)C(=O)N[C@@H](CC(=O)O)C(=O)COC(=O)c1c(Cl)cccc1Cl` the same measures were 67600 to 942000 M⁻¹ s⁻¹, 90100 to 1.27e+06 M⁻¹ s⁻¹, 28200 to 360000 M⁻¹ s⁻¹ and 337000 to 551000 M⁻¹ s⁻¹.
As for `C[C@H](NC(=O)C(=O)NCc1cccc2ccccc12)C(=O)N[C@@H](CC(=O)O)C(=O)COC(=O)c1c(Cl)cccc1Cl`, the Ratio on Caspase-3 (Homo sapiens) came to 187000 M⁻¹ s⁻¹; at Caspase-1 (Mus musculus) it was 1.16e+06 M⁻¹ s⁻¹; on Caspase-6 (Homo sapiens) it was 214000 M⁻¹ s⁻¹; on Caspase-8 (Homo sapiens), 936000 M⁻¹ s⁻¹.
The matching figures for `CC(C)[C@H](NC(=O)C(=O)NCc1ccccc1)C(=O)N[C@@H](CC(=O)O)C(=O)COc1c(F)c(F)cc(F)c1F`: 21000 M⁻¹ s⁻¹, 1.8e+06 M⁻¹ s⁻¹, 16600 M⁻¹ s⁻¹ and 472000 M⁻¹ s⁻¹.
